Data from publication PMC8453635, “Piperidine Azasugars Bearing Lipophilic Chains: Stereoselective Synthesis and Biological Activity as Inhibitors of Glucocerebrosidase (GCase)” (The Journal of Organic Chemistry, 2021).
Entries after “also recorded” stand apart in the source; their conditions may differ.

Columns and labels:
α-mannosidase = molecular target: T1, α-mannosidase (Homo sapiens, UniProt O00754); experiment: Human lysosomal glycosidase selectivity screening (leukocyte homogenate); type: biochemical; conditions: 1 mM, read-out: percentage of inhibition, α-Man
T1 construct: from leukocytes isolated from healthy donors (controls); from tissue; host or cells: leukocytes from healthy donors, sonicated homogenate
T1 sequence (O00754 50-1011): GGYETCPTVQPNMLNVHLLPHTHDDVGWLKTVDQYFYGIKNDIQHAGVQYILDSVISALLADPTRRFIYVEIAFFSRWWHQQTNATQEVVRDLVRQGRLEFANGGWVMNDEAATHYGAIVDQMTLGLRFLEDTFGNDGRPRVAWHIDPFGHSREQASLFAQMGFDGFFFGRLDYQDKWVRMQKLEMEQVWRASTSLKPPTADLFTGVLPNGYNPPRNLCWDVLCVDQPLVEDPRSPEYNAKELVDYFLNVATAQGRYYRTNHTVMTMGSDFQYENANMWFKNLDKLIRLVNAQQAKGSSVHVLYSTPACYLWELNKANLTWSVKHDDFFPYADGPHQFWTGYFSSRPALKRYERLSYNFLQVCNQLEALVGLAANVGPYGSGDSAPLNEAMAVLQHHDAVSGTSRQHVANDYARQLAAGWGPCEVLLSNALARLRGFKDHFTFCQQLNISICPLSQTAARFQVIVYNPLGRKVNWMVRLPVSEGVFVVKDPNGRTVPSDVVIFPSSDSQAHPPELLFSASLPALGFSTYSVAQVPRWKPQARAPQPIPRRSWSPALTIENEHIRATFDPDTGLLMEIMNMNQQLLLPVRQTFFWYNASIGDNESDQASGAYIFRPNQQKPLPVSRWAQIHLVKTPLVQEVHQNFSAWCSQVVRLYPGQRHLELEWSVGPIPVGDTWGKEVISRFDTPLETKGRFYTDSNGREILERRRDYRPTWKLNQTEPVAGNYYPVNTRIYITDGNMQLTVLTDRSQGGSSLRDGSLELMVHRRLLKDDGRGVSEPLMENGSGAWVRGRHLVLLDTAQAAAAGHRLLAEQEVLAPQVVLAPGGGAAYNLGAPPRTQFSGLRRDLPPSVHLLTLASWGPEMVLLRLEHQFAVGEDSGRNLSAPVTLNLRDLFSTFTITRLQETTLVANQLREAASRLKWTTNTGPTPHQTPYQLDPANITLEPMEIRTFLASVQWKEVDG
Protocol: In order to avoid undesired inhibitory side effects of a potential new drug, it has to be selective for a given target. The selectivity of the newly synthesized compounds 14, 15, and 33·HCl toward GCase was then investigated, evaluating their inhibition at 1 mM concentration toward six other lysosomal glycosidases (namely, α-and β-mannosidases, α- and β-galactosidases, α-fucosidase, and α-glucosidase) in cell homogenates (leucocytes or lymphocytes) isolated from healthy donors. […] Indeed, only moderate inhibitory activity (ca. 50%) was found toward human β-galactosidase for both piperidines 14 and 15, while negligible inhibitory activity was detected in all other cases.
(§1) The effect of 1 mM concentration of 14, 15, and 33·HCl was assayed toward six lysosomal glycosidases other than GCase, namely, α-mannosidase, β-mannosidase, α-galactosidase, β-galactosidase, α-fucosidase from leukocytes isolated from healthy donors (controls) and α-glucosidase from lymphocytes isolated from healthy donors’ flesh blood (controls). Isolated leukocytes or lymphocytes were disrupted by sonication, and a micro BCA protein assay kit (Sigma-Aldrich) was used to determine the total protein amount for the enzymatic assay, according to the manufacturer’s instructions (for more details, see the Supporting Information section).
Selectivity of compounds 14, 15 and 33.HCl towards lysosomal enzymes.
as §1, with “15” for “15,”, “33.HCl” for “33·HCl”, “towards” for “toward”, “namely:” for “namely,”, “(Sigma–Aldrich)” for “(Sigma-Aldrich)”, “manufacturer instructions. […]” for “manufacturer’s instructions (for more details, see the Supporting Information section).”
Molecular Devices). Inhibition is given with respect to the control (without azasugar). Data are mean SD (n=3). […]
Inhibition is given with respect to the control (without azasugar). Data are mean SD (n=3). […]
(1 picture or pasted object on this page, not shown here) […]
α-Fucosidase activity was measured in a flat -bottomed 96 -well plate. Azasugar solution (3 μL), 4.29 μg/μL leukocytes homogenate 1:3 (7 μL), and substrate 4 -methylumbe lliferyl α-L-fucopyranoside (1.51 mM, 20 μL, Sigma –Aldrich) in Na phosphate/citrate buffer (0.2:0.1, M/M, pH 5.5) were incubated at 37 °C for 1 h. […]
Data are mean SD (n=3). S74 […]
α-Glucosidase activity was measured in a flat –bottomed 96 well plate. Azasugar solution (3 µL), 4.29 µg/µL lymphocytes homogenate (7µL) and 20 µL of substrate solution of 4 -methylumbelliferyl -α-D-glucopyranoside (Sigma -Aldrich) in Na a cetate buffer (0.2 M, pH 4.0) were incubated for 1 h at 37 °C. The reaction was stopped by the addition of a solution of sodium carbonate (200 µL; 0.5M, pH 10.7) containing Triton X -100 (0.0025 %), and the fluorescence of 4 -methylumbelliferone released by α-glucosidase activity was measured in […]
respect to the control (without azasugar). Data are means of 3 values. […]
Figure S 48. Activity of a panel of 6 hu man lysosomal glycosidases in the presence of compounds 14, 15 and 33.HCl (1 mM ). The corresponding calculated percentage of inhibition is indicated above each bar.

[1] = molecular target: T2, GCase in fibroblasts bearing the L444P/L444P mutations (Homo sapiens, UniProt P04062, L483P); experiment: Pharmacological chaperoning activity in L444P/L444P Gaucher fibroblasts; type: cell-based; conditions: for cell viability: 50 µM, 4 days; for GCase enzymatic activity rescue: 4 days incubation, 5 nM to 10 μM
T2 construct: fibroblasts derived from Gaucher patients bearing the N370S/RecNcil and L444P/L444P mutations; host or cells: fibroblasts from Gaucher disease patients, L444P/L444P
T2 sequence (P04062 40-536 L483P): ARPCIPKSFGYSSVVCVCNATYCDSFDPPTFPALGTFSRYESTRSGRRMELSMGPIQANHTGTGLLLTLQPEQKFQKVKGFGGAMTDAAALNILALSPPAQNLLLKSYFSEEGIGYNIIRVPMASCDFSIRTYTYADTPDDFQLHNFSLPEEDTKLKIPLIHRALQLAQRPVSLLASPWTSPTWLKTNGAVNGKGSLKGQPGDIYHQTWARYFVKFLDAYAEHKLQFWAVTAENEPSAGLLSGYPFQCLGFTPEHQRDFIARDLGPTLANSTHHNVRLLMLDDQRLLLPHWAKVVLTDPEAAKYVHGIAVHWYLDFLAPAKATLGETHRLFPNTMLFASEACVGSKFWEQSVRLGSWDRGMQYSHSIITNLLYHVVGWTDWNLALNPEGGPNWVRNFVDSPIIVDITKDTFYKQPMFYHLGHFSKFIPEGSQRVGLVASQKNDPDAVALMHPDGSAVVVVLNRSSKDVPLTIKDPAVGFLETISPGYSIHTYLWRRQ
Protocol: The ability of compounds 14 and 15 to enhance the activity of GCase after incubation (4 days) with fibroblasts bearing the selected mutations was evaluated. The experiments were performed using fibroblasts derived from Gaucher patients bearing the N370S/RecNcil and L444P/L444P mutations (see the Supporting Information section).
Fibroblasts with the N370S/RecNcil (or L444P/L444P) mutation from Gaucher disease patients were obtained from the “Cell line and DNA Biobank from patients affected by Genetic Diseases” (Gaslini Hospital, Genova, Italy). Fibroblast cells (15.0 × 10^4) were seeded in T25 flasks with DMEM supplemented with fetal bovine serum (10%), penicillin/streptomycin (1%), and glutamine (1%) and incubated at 37 °C with 5% CO2 for 24 h. The medium was removed, and fresh medium containing the compounds (14, 15 and 33·HCl) was added to the cells and incubated for 4 days. The medium was removed, and the cells were washed with PBS and detached with trypsin to obtain cell pellets, which were washed four times with PBS, frozen, and lysed by sonication in water. Enzyme activity was measured as reported above. Reported data are mean S.D. (n = 2).
Figure S52. Fibroblasts derived from GD patients bearing L444P/L444P mutations were incubated without (control, ctrl) or with 7 different concentrations (5 nM, 10 nM, 50 nM, 100 nM, 1 µM, 10 µM, 50 µM) of compounds 14 or 15. After 4 days, the flasks containing cells incubated with 50 µM […]
other concentrations, the GCase activity was determined in lysates from treated fibroblasts. Reported data are mean S.D. (n=2).
(also on this page, place not known: beta glucosidase activity (nmol/mg/h) beta glucosidase activity (nmol/mg/h))

| Compound | inhibition at 1000 µM (α-mannosidase) | cell viability [1] | GCase enzymatic activity rescue [1] |
| --- | --- | --- | --- |
| CCCCCCCC[C@H]1[C@@H](O)[C@H](O)[C@H](O)CN1CCCCCCCC [compound 14, (2S,3R,4R,5R)-1,2-Dioctylpiperidine-3,4,5-triol] | 4% | low cell viability | no enzymatic activity rescue; also recorded: no GCase activity enhancements |
| CCCCCCCC[C@@H]1[C@@H](O)[C@H](O)[C@H](O)CN1CCCCCCCC [compound 15, (2R,3R,4R,5R)-1,2-Dioctylpiperidine-3,4,5-triol] | 7% | low cell viability | no enzymatic activity rescue; also recorded: no GCase activity enhancements |
